pKd: −log10 of the molar value. “Also recorded” adds a separate entry of the source. Where two headings read alike, the source gives them in different places.
Experiments:
4T1 and 67NR cells = assay: EpCAM aptamer uptake by mouse cell lines; type: cell-based
[1] = tested on: EpCAM+ MDA-MB-468 and BPLER cells vs BPE cells; assay: Uptake of fluorescently labeled aptamer/AsiC by breast cell lines (flow cytometry, microscopy); type: cell-based, human; settings: Cy3 at 5'-end, 22 and 43 hr
Text: To verify selective uptake by EpCAM+ tumor cells, confocal fluorescence microscopy was used to compare internalization of the EpCAM aptamer, fluorescently labeled at the 5′-end with Cy3, in EpCAM+ MDA-MB-468 TNBC cells and BPE, EpCAM^dim immortalized breast epithelial cells (data not shown). […] As a consequence, cellular internalization is slow since it likely occurs via receptor recycling, rather than the more rapid process of activation-induced endocytosis.
(§1) For uptake and silencing treatment, cells were plated at low density (10,000 cells/well in 96-well plates) and treated immediately. All AsiC and siRNA treatments were performed in either OptiMEM or WIT medium. Cell viability was assessed by CellTiter-Glo (Promega) or by Trypan-Blue staining in 96-well plates.
For flow cytometry, cells were stained as previously described (Yu, F. et al (2007). let-7 Regulates Self Renewal and Tumorigenicity of Breast Cancer Cells. Cell 131, 1109-1123. ), briefly, direct immunostaining of EpCAM and AKT1 was performed using 1:50 dilutions of hAb for 30-60 minutes at 4° C. (BioLegend/BD). Cells were stained in PBS containing 0.5% FCS, 1 mM EDTA, and 25 mM HEPES. Samples were washed twice in the same buffer. Data was acquired using FACS-Canto II (BD Biosciences). Analyses were performed in triplicate and 10,000 gated events/sample were counted. All data analysis was performed using FlowJo (Treestar Inc.).

human EpCAM = human EpCAM (Homo sapiens, UniProt P16422); settings: 19 nt aptamer; read-out: affinity for human EpCAM; cited from earlier work
Sequence of human EpCAM (P16422 24-314): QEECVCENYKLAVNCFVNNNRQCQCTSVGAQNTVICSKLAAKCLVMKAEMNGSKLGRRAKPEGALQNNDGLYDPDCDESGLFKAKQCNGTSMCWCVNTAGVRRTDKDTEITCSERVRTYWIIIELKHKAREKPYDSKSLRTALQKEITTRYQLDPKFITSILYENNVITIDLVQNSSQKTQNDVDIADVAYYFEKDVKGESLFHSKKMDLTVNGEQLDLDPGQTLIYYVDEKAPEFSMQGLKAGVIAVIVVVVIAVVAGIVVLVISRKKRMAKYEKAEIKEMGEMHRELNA

[2] = tested on: basal-A, luminal and basal-B breast cancer cell lines; assay: Cell proliferation/viability by CellTiter-Glo in 10 breast cancer cell lines; type: cell-based, human
Text: To explore whether EpCAM-AsiCs could be used as anti-tumor agents in breast cancer, we examined by CellTiterGlo assay the effect of AsiCs directed against PLK1, a kinase required for mitosis, on survival of 10 breast cancer cell lines that included 5 basal-A TNBCs, 2 luminal cell lines, and 3 basal-B TNBCs. […] The anti-proliferative effect strongly correlated with EpCAM expression (FIG. 2B). The reduction in viable EpCAM+ cells after knockdown was due to induction of apoptosis, assessed by annexin V-propidium iodide staining and caspase activation (data not shown). To determine whether ligation of the EpCAM aptamer contributed to the anti-proliferative effect of the EpCAM-AsiC, we compared survival of cells that were treated with the PLK1 EpCAM-AsiC with cells treated with the aptamer on its own (FIG. 2C). […] Thus the PLK1 EpCAM-AsiC asserts its specific anti-tumor effect on EpCAM+ breast cancer cells by gene knockdown.
as §1

mouse EpCAM = target: T1, mouse EpCAM (Mus musculus, UniProt Q99JW5); assay: EpCAM aptamer binding to mouse EpCAM
T1 construct: endogenous in cells; host or cells: 4T1 (EpCAM high) and 67NR (EpCAM minimal) mouse cancer cell lines
T1 sequence (Q99JW5 24-315): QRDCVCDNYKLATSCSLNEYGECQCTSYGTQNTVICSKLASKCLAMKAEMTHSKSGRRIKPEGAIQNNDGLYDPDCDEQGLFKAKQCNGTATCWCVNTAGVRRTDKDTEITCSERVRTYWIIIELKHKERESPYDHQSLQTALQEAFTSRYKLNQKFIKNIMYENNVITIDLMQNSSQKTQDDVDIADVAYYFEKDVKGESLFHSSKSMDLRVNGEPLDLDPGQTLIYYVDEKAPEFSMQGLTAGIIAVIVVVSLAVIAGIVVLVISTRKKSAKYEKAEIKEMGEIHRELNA

MB468-luc tumors = assay: Tumor inhibition, EpCAM+ MB468-luc xenograft; type: in vivo, nude mice; settings: 5 mg/kg sc every 3 d (72 h) for 2 wks
Protocol: For tumor inhibition studies, MB468-luc (5×10^6) and MB231-luc-mCherry (5×10^5) cells trypsinized with Tryple Express (Invitrogen), resuspended in a 1:1 WIT-Matrigel solution and injected subcutaneously in the flank of 8-week old female Nu/J mice (Stock #002019, Jackson Laboratories). Tumors size was analyzed daily using the IVIS Spectra, after 5 days tumors were clearly visible. […] Mice were treated every 72 h for 14 days.

Substance: EpCAM aptamer: 19 nt RNA aptamer to human EpCAM (Shigdar 2011); GCGACUGGUUACCCGGUCGUUU, SEQ ID NO: 33 (GCGACUGGUUACCCGGUCGUUU; listed as RNA, chemistry not given here) [reference compound]
- uptake by 4T1 and 67NR cells (4T1 and 67NR cells): not taken up by neither 4T1 nor 67NR cells
- uptake of Cy3-labeled aptamer, MDA-MB-468 vs BPE [1]: Only MDA-MB-468 cells took up the aptamer
- uptake of Cy3-labeled aptamer, MDA-MB-468 vs BPE ([1]; listed as EpCAM-Aptamer): selective AsiC uptake in EpCAM+ cells
- pKd (human EpCAM): 7.92
- cell proliferation/viability, all cell lines tested [2]: did not have a reproducible effect on survival of any breast cancer cell lines; also recorded: had no effect on cell proliferation
- cell proliferation/viability, basal-A and luminal (EpCAM+) lines [2]: does not affect cell growth or viability of EpCAM+ breast tumor cell lines
- cell proliferation/viability, all cell lines tested ([2]; listed as EpCAM-aptamer): None of the cell lines treated with EpCAM-aptamer displayed decrease in cell viability; also recorded: didn't effect cell viability in any of the cell lines
- binding to mouse EpCAM (mouse EpCAM): does not bind to mouse EpCAM; also recorded: does not recognize mouse EpCAM
- binding to mouse EpCAM (mouse EpCAM; listed as EpCAM aptamers): do not bind mouse EpCAM
- growth of EpCAM+ MB468 tumors (MB468-luc tumors): continued to grow without significant change; also recorded: neither of which had any anti-tumor activity
